These results are taken from publication PMC12621189, “Optimization of Selective and CNS Penetrant Alkyne-Based TREK Inhibitors: The Discovery and Characterization of ONO-9517601 (VU6022856) and ONO-7927846 (VU6024391)” (Journal of Medicinal Chemistry, 2025).

“And” between values parts separate entries of the source, which are not always exact repeats. Equal entries are not always repeated.

Series [1] addresses T1, human TREK-1 (hTREK-1) (Homo sapiens, UniProt O95069).
T1 construct: expressed in transfected cells
T1 sequence (O95069 1-426): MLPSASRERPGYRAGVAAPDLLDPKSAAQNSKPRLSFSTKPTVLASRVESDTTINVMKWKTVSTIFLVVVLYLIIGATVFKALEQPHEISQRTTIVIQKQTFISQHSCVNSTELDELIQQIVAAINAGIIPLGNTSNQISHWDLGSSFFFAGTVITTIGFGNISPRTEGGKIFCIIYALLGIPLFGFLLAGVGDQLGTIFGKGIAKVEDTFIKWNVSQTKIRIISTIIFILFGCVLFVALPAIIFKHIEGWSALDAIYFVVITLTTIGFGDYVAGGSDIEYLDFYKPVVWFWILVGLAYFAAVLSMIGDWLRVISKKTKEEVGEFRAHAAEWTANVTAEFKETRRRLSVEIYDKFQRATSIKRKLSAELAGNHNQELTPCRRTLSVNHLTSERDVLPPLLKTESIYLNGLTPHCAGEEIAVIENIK
The series is described as follows: TREK-1 thallium flux assay (CHO-K1 cells stably expressing hTREK-1). It is filed as cell-based. To be noted: human TREK-1, thallium flux; read-out: h TREK-1 Tl+ IC50. A digest of the protocol:
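Cells loaded with FluxOR dye were preincubated 10 min with test compound in 0.3% DMSO, then given thallium stimulus buffer. ΔRatio was fluorescence 25 s after thallium over pre-thallium baseline; % inhibition was normalised between vehicle and 10 μM reference blocker, and IC50 was fitted from concentration–response.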

For series [2], the target named is T2, hTREK-1 (Homo sapiens, UniProt O95069).
T2 construct: expressed in transfected cells
T2 sequence (O95069 1-426): T1 sequence (O95069 1-426)
Kind of series: hTREK-1 manual patch clamp assay. It is filed as cell-based. To be noted: human TREK-1, manual patch clamp; read-out: TREK-1 IC50 (human, MPC). As to the method:
(§1) hTREK-1 and mTREK-1 patch clamp assay
(§2) CHO-K1 cells stably expressing hTREK-1 or CHO-K1 cells transiently expressing mouse TREK-1 (mTREK-1) were plated on glass coverslips, and voltage clamped in the whole-cell configuration of the patch clamp technique. Cells were voltage clamped at a holding potential of - 80 mV and the stepped to 0 mV for 500 msec. The voltage was subsequently ramped from -120mV to +80 mV over a 500 msec duration. This step-ramp protocol was repeated every 10 sec. The bathing solution contained the following: 135 mM NaCl, 5 mM KCl, 2 mM CaCl2, 1 mM MgCl2, 5 mM D-Glucose, 10 mM HEPES, 10 mM sucrose (adjusted to pH 7.4 with NaOH, 300 mosmol/kg H2O). The pipette solution contained the following: 135 mM KCl, 2 mM MgCl2, 1 mM EGTA, 10 mM HEPES, 2 mM Na2ATP (adjusted to pH 7.35 with KOH, 285 mosmol/kg H2O). Test […]
(§3) compounds were dissolved into the bathing solution. The effects of test compound on the currents were calculated at 0 mV using the following equations:
(§4) % inhibition = (1-post current/pre current) x 100
(§5) % inhibition vs compound concentrations were plotted in GraphPad Prism and calculated IC50. […]
(In patch-clamp work, channel activity is measured electrically.)

Series [3] has as its target T3, mouse TREK-1 (mTREK-1) (Mus musculus, UniProt P97438).
T3 construct: expressed in transfected cells; host or cells: CHO-K1 (transient)
T3 sequence (P97438 1-426): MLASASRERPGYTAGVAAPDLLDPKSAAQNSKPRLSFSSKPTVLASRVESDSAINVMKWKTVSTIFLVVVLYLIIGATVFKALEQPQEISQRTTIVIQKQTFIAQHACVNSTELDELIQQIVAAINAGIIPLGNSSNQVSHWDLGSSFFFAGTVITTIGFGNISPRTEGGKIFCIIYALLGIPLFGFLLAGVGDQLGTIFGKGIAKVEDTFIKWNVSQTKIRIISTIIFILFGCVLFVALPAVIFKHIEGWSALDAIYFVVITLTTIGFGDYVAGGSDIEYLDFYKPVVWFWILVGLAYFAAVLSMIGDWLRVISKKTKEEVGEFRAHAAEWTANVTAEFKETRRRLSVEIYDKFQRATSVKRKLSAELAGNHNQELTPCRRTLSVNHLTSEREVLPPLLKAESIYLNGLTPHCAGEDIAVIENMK
The series is described as follows: mTREK-1 manual patch clamp assay. It is filed as cell-based. To be noted: mouse TREK-1, manual patch clamp; read-out: TREK-1 IC50 (mouse, MPC). On the procedure:
as §1, §2, §3, §4, §5

Series [4] can be described thus: Liver microsome intrinsic clearance, rat. Conditions: for CLint scaled at 1 µM: pH 7.4, rat liver microsomes, predicted intrinsic clearance, read-out: LMS CLINT rat; for Predicted CLhep rat: from microsomal CLint. The class given is in vitro ADME. On the procedure:
were incubated in 100 mM potassium phosphate pH 7.4 buffer with 3 mM MgCl2 at 37 °C with constant shaking. After a 5 min preincubation, the reaction was initiated by the addition of NADPH (1 mM). At selected time intervals (0, 3, 7, 15, 25, and 45 min), aliquots were taken and subsequently placed into a 96-well plate containing cold acetonitrile with internal standard (50 ng/mL carbamazepine). Plates were then centrifuged at 3000 rcf (4 °C) for 10 min, and the supernatant was transferred to a separate 96-well plate and diluted 1:1 with water for LC/MS/MS analysis. The in vitro half-life ( 1/2, min, Eq. 1), intrinsic clearance (CLint, mL/min/kg, Eq. 2), and subsequent predicted hepatic clearance (CLhep, mL/min/kg, Eq. 3) was determined employing the […]
where k represents the slope from linear regression analysis of the natural log percent remaining of a test compound as a function of incubation time […]
(2) CLint = in vitroT x mg microsomes x gram liver x kg body wt ascale-up factors: of 20 (human) or 45 (rat) […]
where Qh (hepatic blood flow, mL/min/kg) is 21 (human) or 70 (rat).
LC/MS/MS Bioanalysis of Samples from Plasma Protein Binding and Intrinsic Clearance […]
Samples were analyzed on a Thermo Electron TSQ Quantum Ultra triple quad mass spectrometer (San Jose, CA) via electrospray ionization (ESI) with two Themo Electron Accella pumps (San Jose, CA), and a Leap Technologies CTC PAL autosampler (Carrboro, NC). Analytes were […]

As usually defined, the IC50 is the concentration that inhibits the measured activity by half. With `Cc1cc(C#Cc2ccccc2)cnc1NC(=O)c1cc(OC[C@@H]2COCCO2)ccc1Cl` [Compound 7, (S)-5-((1,4-Dioxan-2-yl)methoxy)-2-chloro-N-(3-methyl-5-(phenylethynyl)pyridin-2-yl)benzamide], the IC50 came out at 0.21 µM in series [1], 0.079 µM in series [2] and 0.17 µM in series [3].
For the molecule `CC(=O)N1CCC(n2ncc(Cl)c2C(=O)Nc2ncc(C#Cc3ccccc3)cc2C)CC1` [Compound 10, 1-(1-Acetylpiperidin-4-yl)-4-chloro-N-(3-methyl-5-(phenylethynyl)pyridin-2-yl)-1H-pyrazole-5-carboxamide], the IC50 in series [1] is 0.067 µM and 0.07 µM; in series [2], 0.063 µM; in series [3], 0.067 µM. The CLint scaled at 1 µM in series [4] was 3.72 L/h/kg. Further, the “Predicted CLhep rat” value in series [4] is 1.97 L/h/kg.
Regarding `CC(=O)N1CC[C@@H](n2ncc(Cl)c2C(=O)Nc2ncc(C#Cc3ccc(F)cc3)cc2C)[C@H](F)C1` [Compound 11, 1-((3R,4R)-1-Acetyl-3-fluoropiperidin-4-yl)-4-chloro-N-(5-((4-fluorophenyl)ethynyl)-3-methylpyridin-2-yl)-1H-pyrazole-5-carboxamide], the IC50 in series [1] was found to be 0.11 µM; in series [2], 0.064 µM; in series [3], 0.76 µM. Moreover, the CLint scaled at 1 µM in series [4] is 2.4 L/h/kg. In addition, the “Predicted CLhep rat” value in series [4] is 1.52 L/h/kg.
Consider `Cc1cc(C#Cc2ccccc2)cnc1NC(=O)c1c(Cl)cnn1[C@H]1CCOC1` [Compound 15a, (S)-4-Chloro-N-(3-methyl-5-(phenylethynyl)pyridin-2-yl)-1-(tetrahydrofuran-3-yl)-1H-pyrazole-5-carboxamide], for which the IC50 in series [1] stood at 0.36 µM. Besides, the CLint scaled at 1 µM in series [4] is 2.94 L/h/kg.
